Assay results published in patent US20240010635A1, “NOVEL INDIRUBIN DERIVATIVES HAVING HETEROBICYCLIC MOIETIES AND THE USE THEREOF” (priority 2022, published 2024).

Legend:
Format in all cases: cell-based
[1] = test system: MV4-11; test: Cell proliferation inhibition in AML cell line MV4-11 (Alamar Blue); conditions: Homo sapiens, MV4-11, 72 hours, read-out: Cell proliferation inhibitory activity (GI50) MV4-11
Description: (§1) Cell proliferation inhibition experiments on acute myeloid leukemia (AML) cell lines tested FLT3 inhibitory activity using MV4-11, Molm-13, and Molm-14 cells, which are FLT3-ITD-expressed AML cell lines. The origin of all cell lines is human-derived cell lines, and the place of purchase and culture conditions of each cell line are as follows.
(§2) MV4-11 cells were purchased form the American Type Culture Collection (ATCC, Rockville, MD, USA, cat #CRL-9591), Molm-13 (DSMZ, cat #ACC554), Molm-14 (DSMZ, cat #ACC777), and then cultured in RPMI 1640 medium (Corning Co. 10-040-CV) supplemented with 10% fetal bovine serum, 1% penicillin/streptomycin and 4 mM L-glutamine (Life Technology, GrandIsland, NY).
(§3) Cell viability was evaluated by Resazurin redox-based analysis method with Alamar Blue Assay Kit (Invitrogen, USA). Specifically, for MV4-11, Molm-13 and Molm-14 cells, 8000 cells were plated on 384-well plates in 45 μl of medium. Compounds were treated with dimethyl sulfoxide (DMSO) as a negative control group. After 3 days (72 hours) of compound addition, 5 μl of Alamar Blue kit reagent was added to each well of 384-well plate and incubated at 37° C. for 2 hours in a humidified CO2 incubator. After incubation, fluorescence density (Flu) was measured at a wavelength of 544 nm and 590 nm using SpectraMax iD3 Multi Mode Microplate Reader (Molecular Devices, ID3-STD). GI50 was calculated by nonlinear regression using Prism version 5.01 (GraphPad, LaJolla, CA, USA).

[2] = test system: Molm-13; test: Cell proliferation inhibition in AML cell line Molm-13 (Alamar Blue); conditions: Homo sapiens, Molm-13, 72 hours, read-out: Cell proliferation inhibitory activity (GI50) Molm-13
Description: as §1, §2, §3

[3] = test system: Molm-14; test: Cell proliferation inhibition in AML cell line Molm-14 (Alamar Blue); conditions: Homo sapiens, Molm-14, 72 hours, read-out: Cell proliferation inhibitory activity (GI50) Molm-14
Description: as §1, §2, §3

| Structure (SMILES) | GI50 [1] | GI50 [2] | GI50 [3] |
| --- | --- | --- | --- |
| O=C1Nc2cc(Br)ccc2/C1=C1/Nc2ccccc2/C1=N\OCCN1CCNCC1 [Comparative Example 1, reference compound] | 20 nM | 11.2 nM | 9.36 nM |
| O=C1Nc2ccc(Br)cc2/C1=C1/Nc2ccccc2/C1=N\OCCN1CCNCC1 [Comparative Example 2, reference compound] | 7 nM | 4.08 nM | 4.08 nM |
| O=C1Nc2ccc(F)cc2/C1=C1/Nc2ccccc2/C1=N\OCCN1CCNCC1 [Comparative Example 3, reference compound] | 3.7 nM | 2.53 nM | 1.6 nM |
